Format in all cases: cell-based
One assay concerns A2780 ovarian cells. Briefly: A2780 Ovarian Cell Proliferation Assay in Lipid Reduced Medium, with and without Palmitate (MTT). The conditions noted are these: Homo sapiens, 10% lipid-reduced serum, 96 h. The procedure: The biological assays described below correspond to comparative assays for ovarian cell proliferation.
2500 cells were seeded in a 96-well clear well plate in 200 μL RPM11640 with 10% Fetal Calf Serum (Hyclone), and incubated at 37° C., 5% CO2, Blanks were wells without cells. The next day the culture medium was aspirated and replaced by 160 μL culture medium with 10% Lipid-Reduced Serum (LRS, Hyclone). […] After 96 h incubation, an MTT assay was performed.
2500 cells were seeded in a 96-well clear well plate in 200 μL RPM11640 with 10% Fetal Calf Serum (Hyclone), and incubated at 37° C., 5% CO2. Blanks were wells without cells. The next day the culture medium was aspirated and replaced by 160 μL culture medium with 10% Lipid-Reduced Serum (LRS, Hyclone). 20 μL test compound (at concentrations of 30 μM, 10 μM, 3 μM, 1 μM, 0.30 μM, 0.10 μM, 0.03 μM and 0.01 μM)/DMSO dilution followed by 20 μL ethanol-BSA solution were added to a final concentrations of 0.2% DMSO, 0.2% fatty-acid-free BSA, 0.25% ethanol. After 96 h incubation an MTT assay was performed.
Raw data generated by the instrument were normalized to % Controlmin values, which were calculated as: % Controlmin=100*(x−mLC)/(mHC−mLC)
where mLC and mHC were the means of the low control wells and high control wells on the plate, after manual exclusion of outliers. A plot of Controlmin versus test compound concentration was fitted to a 4-parameter logistic curve using a non-linear least squares regression method.

Assay [1] concerns LNCaP_Vancouver prostate cells. The experiment in a line: In Vitro LNCaP Vancouver Prostate Cell Proliferation Assay in Lipid Reduced Medium. To be noted: 10% lipid reduced serum, 96 h, ATP-glow luminescence; for IC50: Prostate cell, read-out: pIC50 LNCaP_Vancouver prostate cell (converted). The procedure:
LNCaP_Vancouver prostate cells were obtained from the Vancouver Prostate Cancer Centre.
The next day 10 μl of test compound/DMSO diluted in medium was added (3E-5M, 1E-5M, 3E-6M,1E-6M, 3E-7M, 1E-7M, 3E-8M, 1E-8M final concentration). Compounds were tested in duplicate. After 96 h incubation at 37° C., 5% CO2 25 μl ATP-glow mix was added. The plate was incubated for 30 min at 37° C. and luminescence was measured with the Envision.
(§1) Analysis: Determination of pIC50 Values
(§2) pIC50 values were calculated as follows. Raw data generated by the instruments were normalized to % Controlmin values, which were calculated as: % Controlmin=100*(x−mLC)/(mHC−mLC),
(§3) where mLC and mHC are the means of the low control wells and high control wells on the plate, after manual exclusion of outliers. The relation between the % Controlmin values and concentration was fitted to a 4-parameter logistic curve using a non-linear least squares regression method to determine the pIC50 value. Outlying data points were excluded manually to get a correct fit. The pIC50 corresponds to −log 10(IC50), if the IC50 is expressed in molar units (http://www.ncbi.nlm.nih.qovibooks/NBK91994). The IC50 parameter was always determined by non-linear regression, but one or more of the other parameters may have been held fixed on a relevant input value, such as 0 for the bottom values.

The test system of assay [2] is PC-3M-Luc-C6 prostate cells. Briefly: In Vitro PC-3M-Luc-C6 Prostate Cell Proliferation Assay in Lipid Reduced Medium. To be noted: 10% lipid reduced serum, 96 h, ATP-glow luminescence; for IC50: Prostate cell, read-out: pIC50 PC-3M-Luc-C6 prostate cell (converted). How it is done:
PC-3M-Luc-C6 prostate cells were obtained from Xenogen Corporation. Cells were maintained in MEM supplemented with 10% Fetal Calf Serum (FCS, Hyclone), 2 mM glutamine, 1 mM sodium pyruvate, 1% BME vitamins (available from for example, Sigma Aldrich), 0.1 mM non Essential Amino Acid and 50 μg/ml Gentamicin. The cells were passaged twice a week.
The next day 10 μl test compound/DMSO diluted in medium was added (3E-5M, 1E-5M, 3E-6M,1E-6M, 3E-7M, 1E-7M, 3E-8M, 1E-8M final concentration). Compounds were tested in duplicate. After 96 h incubation at 37° C., 5% CO2 25 μl ATP-glow mix was added. The plate was incubated for 30 min at 37° C. and luminescence was measured with the Envision.
as §1, §2, §3

[3] abbreviates: 25 μM palmitate added (control), read-out: pIC50 With Palmitate (converted).
The mark [4] stands for this setting: no palmitate, read-out: pIC50 Without Palmitate (converted).

Like-named read-outs stand apart in the source and are kept apart here.

Take `Cn1ncc2cc(-c3ccc(C4=NC(C)(c5ccccc5)C(=O)N4C[C@@H]4CCN(C(=O)C5CC5)C4)cc3)ccc21` (mixture of isomers) [Compound 6, (4RS)-1-(((R)-1-(cyclopropanecarbonyl)pyrrolidin-3-yl)methyl)-4-methyl-2-(4-(1-methyl-1H-indazol-5-yl)phenyl)-4-phenyl-1H-imidazol-5(4H)-one]: the IC50 with A2780 ovarian cells (setting [3]) is more than 10000 nM; with A2780 ovarian cells (setting [4]), 363 nM; in assay [1], 1820 nM; in assay [2], 501 nM.
Consider `CC1(C)N=C(c2ccc(-c3ccc4cnccc4c3)cc2)N(C[C@@H]2CCN(C(=O)C3CC3)C2)C1=O` [Compound 28], for which the IC50 is more than 10000 nM with A2780 ovarian cells (setting [3]), 58.9 nM with A2780 ovarian cells (setting [4]), 1580 nM in assay [1] and 63.1 nM in assay [2].
Consider `COCC1(C)N=C(c2ccc(-c3ccc4occc4c3)cc2)N(C[C@@H]2CCN(C(=O)C3CC3)C2)C1=O` (mixture of isomers) [Compound 8, (4RS)-2-(4-(Benzofuran-5-yl)phenyl)-1-(((R)-1-(cyclopropanecarbonyl)pyrrolidin-3-yl)methyl)-4-(methoxymethyl)-4-methyl-1H-imidazol-5(4H)-one], for which the IC50 in the assay with A2780 ovarian cells (setting [3]) is more than 10000 nM; in the assay on A2780 ovarian cells (setting [4]) it was 1150 nM; in assay [1] it was 2570 nM; in assay [2], 1290 nM.
In the same order, the values of `CC1(C)N=C(c2ccc(-c3ccc4cc(F)ccc4c3)cc2)N(CC2CN(C(=O)C3CC3)C2)C1=O` [Compound 29, 1-((1-(cyclopropanecarbonyl)azetidin-3-yl)methyl)-2-(4-(6-fluoronaphthalen-2-yl)phenyl)-4,4-dimethyl-1H-imidazol-5(4H)-one] are more than 10000 nM, 1230 nM, approximately 2820 nM and 1290 nM.
For `Cn1cc(-c2ccc(-c3ccc(C4=NC(C)(C)C(=O)N4C[C@@H]4CCN(C(=O)C5(C)CC5)C4)c(F)c3)cc2)cn1` [Compound 74, (R)-2-(3-fluoro-4′-(1-methyl-1H-pyrazol-4-yl)-[1,1′-biphenyl]-4-yl)-4,4-dimethyl-1-((1-(1-methylcyclopropanecarbonyl)pyrrolidin-3-yl)methyl)-1H-imidazol-5(4H)-one], in that order: more than 10000 nM, 3.89 nM, 11.5 nM and approximately 8.32 nM.
`Cn1cc(-c2ccc(-c3ccc(C4=NC(C)(C)C(=O)N4CC4CN(C(=O)C5(C)CC5)C4)c(F)c3)cc2)cn1` [Compound 70]: the IC50 in the assay with A2780 ovarian cells (setting [3]) is more than 10000 nM; with A2780 ovarian cells (setting [4]), 24.5 nM; in assay [1] it was 135 nM; in assay [2], 11 nM.
As for `Cn1ncc2cc(-c3ccc(C4=NC(C)(C)C(=O)N4CC4CN(C(=O)C5(O)CC5)C4)c(F)c3)ccc21` [Compound 78, 2-(2-fluoro-4-(1-methyl-1H-indazol-5-yl)phenyl)-1-((1-(1-hydroxycyclopropanecarbonyl)azetidin-3-yl)methyl)-4,4-dimethyl-1H-imidazol-5(4H)-one], the IC50 in the assay with A2780 ovarian cells (setting [3]) is more than 10000 nM; in the assay on A2780 ovarian cells (setting [4]), 537 nM; in assay [1] it was 3090 nM; in assay [2], 447 nM.
In the same order, the values of `Cn1cc(-c2ccc(-c3ccc(C4=NC(C)(C)C(=O)N4C[C@@H]4CCN(C(=O)C5CC5)C4)cc3)cc2)cn1` [Compound 16, (R)-1-((1-(cyclopropanecarbonyl)pyrrolidin-3-yl)methyl)-4,4-dimethyl-2-(4′-(1-methyl-1H-pyrazol-4-yl)-[1,1′-biphenyl]-4-yl)-1H-imidazol-5(4H)-one] are more than 10000 nM, 186 nM, 331 nM and 174 nM.
`CC1(C)N=C(c2ccc(-c3ccc(-c4ccncc4)cc3)cc2F)N(CC2CN(C(=O)C3CC3)C2)C1=O` [Compound 22, 1-((1-(cyclopropanecarbonyl)azetidin-3-yl)methyl)-2-(3-fluoro-4′-(pyridin-4-yl)-[1,1′-biphenyl]-4-yl)-4,4-dimethyl-1H-imidazol-5(4H)-one]: the IC50 in the assay with A2780 ovarian cells (setting [3]) is more than 10000 nM; in the assay with A2780 ovarian cells (setting [4]), approximately 269 nM; in assay [1], 813 nM; in assay [2], 224 nM.
Regarding `CC1(C)N=C(c2ccc(-c3ccc4cc(F)ccc4c3)cc2)N(C[C@@H]2CCN(C(=O)C3CC3)C2)C1=O` [Compound 30, (R)-1-((1-(cyclopropanecarbonyl)pyrrolidin-3-yl)methyl)-2-(4-(6-fluoronaphthalen-2-yl)phenyl)-4,4-dimethyl-1H-imidazol-6(4H)-one], the IC50 with A2780 ovarian cells (setting [3]) was more than 10000 nM; in the assay with A2780 ovarian cells (setting [4]), 1230 nM; in assay [1] it was 3390 nM; in assay [2] it was 490 nM.
For `Cn1ncc2cc(-c3ccc(C4=NC(C)(C)C(=O)N4CC4CN(C(=O)C5CC5)C4)c(F)c3)ccc21` [Compound 32, 1-((1-(cyclopropanecarbonyl)azetidin-3-yl)methyl)-2-(2-fluoro-4-(1-methyl-1H-indazol-5-yl)phenyl)-4,4-dimethyl-1H-imidazol-5(4H)-one], in that order: more than 10000 nM, 977 nM, 4680 nM and 1480 nM.
For `CC1(C)N=C(c2ccc(-c3nc4ccccc4s3)cc2F)N(CC2CN(C(=O)C3CC3)C2)C1=O` [Compound 34, 2-(4-(benzo[d]thiazol-2-yl)-2-fluorophenyl)-1-((1-(cyclopropanecarbonyl)azetidin-3-yl)methyl)-4,4-dimethyl-1H-imidazol-5(4H)-one], the IC50 with A2780 ovarian cells (setting [3]) was more than 10000 nM; in the assay on A2780 ovarian cells (setting [4]), 1000 nM; in assay [1], 2630 nM; in assay [2] it was 832 nM.
In the same order, the values of `CC1(C)N=C(c2ccc(-c3nc4ccccc4o3)cc2)N(C[C@@H]2CCN(C(=O)C3CC3)C2)C1=O` [Compound 11, (R)-2-(4-(benzo[d]oxazol-2-yl)phenyl)-1-((1-(cyclopropanecarbonyl)pyrrolidin-3-yl)methyl)-4,4-dimethyl-1H-imidazol-5(4H)-one] are more than 10000 nM, 3720 nM, approximately 10000 nM and approximately 2000 nM.
In the case of `CC1(C)N=C(c2ccc(-c3ccc4cnccc4c3)cc2F)N(CC2CN(C(=O)C3CC3)C2)C1=O` [Compound 56, 1-((1-(cyclopropanecarbonyl)azetidin-3-yl)methyl)-2-(2-fluoro-4-(isoquinolin-6-yl)phenyl)-4,4-dimethyl-1H-imidazol-5(4H)-one], the IC50 was 339 nM in assay [1] and 63.1 nM in assay [2].
Regarding `CC1(C)N=C(c2ccc(-c3ccc4cccc(F)c4c3)cc2F)N(CC2CN(C(=O)C3CC3)C2)C1=O` [Compound 55, 1-((1-(cyclopropanecarbonyl)azetidin-3-yl)methyl)-2-(2-fluoro-4-(8-fluoronaphthalen-2-yl)phenyl)-4,4-dimethyl-1H-imidazol-5(4H)-one], the IC50 in assay [1] was 120 nM; in assay [2], 43.7 nM.
In the case of `CC1(C)N=C(c2ccc(-c3ccc4cncnc4c3)cc2F)N(CC2CN(C(=O)C3CC3)C2)C1=O` [Compound 43, 1-((1-(cyclopropanecarbonyl)azetidin-3-yl)methyl)-2-(2-fluoro-4-(quinazolin-7-yl)phenyl)-4,4-dimethyl-1H-imidazol-5(4H)-one], the “pIC50 LNCaP_Vancouver prostate cell” value in assay [1] is 5.63. Further, the “pIC50 PC-3M-Luc-C6 prostate cell” value in assay [2] was determined as 6.06.
